“Also recorded” adds a separate entry of the source.
System: AM7577 leukemic cells (hCD45+)
Assay: Evaluation of anti-leukemia activity of a therapeutic in AM7577-mice (AML patient derived xenograft)
Assay type: in vivo, NOD/SCID mice
Settings: for Inhibition of leukemia in blood: FIG. 4 legend; for Leukemic load in peripheral blood (hCD45+): 5-day-on/2-day-off, starting 15 days post-engraftment
Experimental: Animal experiments were conducted at Crown Bioscience's laboratory, China. The transplantation recipient NOD/SCID mice were purchased from Beijing HFK Bioscience at between 3-4 weeks of age. The Institutional Animal Care and Use Committee (IACUC) of Crown Bioscience approved animal study protocols. All procedures were under sterile conditions at Crown Bioscience's SPF facility and conducted in strict accordance with the Guide for the Care and Use of Laboratory Animals of the National Institutes of Health. Ficoll® column isolated MNCs were injected into the tail-vein of 4-week old, sub lethally irradiated NOD/SCID mice ([…]), followed by weekly monitoring for peripheral appearance of leukemic cells (CD45^+) via retro-orbital bleeding and flow analysis. Briefly, ˜50 μL blood was collected into anticoagulative tubes (BD 365974, Becton Dickinson and Co., Franklin Lakes, N.J.). After lysis of red blood cells the cells were stained with 20 μL mouse anti-human CD45 antibody (Biolegend, CA) and incubated on ice for 30 minutes in the dark followed by washing with cold PBS. The cells were resuspended in150 μL PBS and subjected to FACS analysis.
Fifteen days post-engraftment, mice were administered different doses of cytarabine (AraC). Mouse blood was collected by retro-orbital bleed and human CD45^+ cells were quantified weekly by flow cytometry. Body weight and clinical signs were also monitored twice weekly. When mice became morbid due to full-blown leukemia, the animals were sacrificed, followed by gross and microscopic examinations. Major relevant organs (bone marrow, spleen, blood, liver, lymph nodes, etc.) were examined and harvested for further analysis, including IHC (method described previously, Yang, M. et al., Int J Cancer. 2012; Sep. 5. doi: 10.1002/ijc.27813) and immunological phenotyping of the leukemia cells by FACS.
Cytarabine (AraC) is the current standard chemotherapy agent for induction therapy of AML, including AML-M5. We tested AraC anti-leukemic activity against AM7577, by subjecting AM7577-mice to a 5-day-on/2-day-off Ara-C dosing regimen, starting 15 days post-engraftment.
We subsequently explored whether AraC treatment actually cured the disease by withdrawing treatment. The result was rapid relapse just a few days post-treatment withdrawal (FIG. 3A). This observation can potentially be interpreted as AraC has only affected leukemic blasts, but has no affect on LICs.

Structure (SMILES) | Inhibition of leukemia in blood | Leukemic load in peripheral blood (hCD45+) (3 mg/kg) | Leukemic load in peripheral blood (hCD45+) (10 mg/kg) | Relapse after drug withdrawal (AM7577-mice, after treatment withdrawal) | Treatment & response (AML mouse model AM7577) | Leukemic blasts in peripheral blood on resuming treatment after withdrawal (second dosing period after relapse) | Survival of AM7577-mice (under treatment vs vehicle group)
CNC(=O)c1cc(Oc2ccc(NC(=O)Nc3ccc(Cl)c(C(F)(F)F)c3)cc2)ccn1 [sorafenib] | Inhibition | – | – | – | – | – | –
Nc1ccn([C@@H]2O[C@H](CO)[C@@H](O)[C@@H]2O)c(=O)n1 [AraC, Cytarabine] | – | no detectable leukemic load | no detectable leukemic load | rapidly relapsed; also recorded: rapid relapse | complete remission | effectively re-suppressed | extended life; also recorded: extended AM7577-mice survival times
CC(C)(C)c1cc(NC(=O)Nc2ccc(-c3cn4c(n3)sc3cc(OCCN5CCOCC5)ccc34)cc2)no1 [AC220] | Inhibition | – | – | – | – | – | –
